In general, DC50 refers to the concentration at which degradation of the target reaches its halfway point. A word on the Dmax: it is the greatest extent of degradation seen.

Some results are limits rather than exact numbers.

Assay [1] concerns the target T1, G2019S LRRK2 (Homo sapiens, UniProt Q5S007, G2019S).
T1 construct: expressed in transfected cells; host or cells: HEK293 (ATCC CRL-1573)
Put plainly: LRRK2 degradation HiBit assay, G2019S LRRK2 tagged with a HiBit tag expressed in HEK293 cells. The format is cell-based. Particulars: 24 hours compound incubation; for Dmax: HEK293, HEK293 cells. In a few lines: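 HEK293 cells were transiently transfected with G2019S LRRK2 carrying a C-terminal HiBit tag (ubiquitin promoter) plus firefly luciferase, then exposed to compound for 24 h at 37 °C. Dual luminescence gave the HiBit/luciferase ratio ×1000, normalised to DMSO. DC50 and Dmax were fitted per plate.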
(The HiBiT peptide binds its large partner to form an active luciferase.)

Assay [2] deals with T2, wildtype LRRK2 (Homo sapiens, UniProt Q5S007).
T2 construct: endogenous in cells; host or cells: HEK293 with HiBit knocked in at the 3' end of the endogenous LRRK2 gene, stably expressing firefly luciferase
T2 sequence (Q5S007 whole entry): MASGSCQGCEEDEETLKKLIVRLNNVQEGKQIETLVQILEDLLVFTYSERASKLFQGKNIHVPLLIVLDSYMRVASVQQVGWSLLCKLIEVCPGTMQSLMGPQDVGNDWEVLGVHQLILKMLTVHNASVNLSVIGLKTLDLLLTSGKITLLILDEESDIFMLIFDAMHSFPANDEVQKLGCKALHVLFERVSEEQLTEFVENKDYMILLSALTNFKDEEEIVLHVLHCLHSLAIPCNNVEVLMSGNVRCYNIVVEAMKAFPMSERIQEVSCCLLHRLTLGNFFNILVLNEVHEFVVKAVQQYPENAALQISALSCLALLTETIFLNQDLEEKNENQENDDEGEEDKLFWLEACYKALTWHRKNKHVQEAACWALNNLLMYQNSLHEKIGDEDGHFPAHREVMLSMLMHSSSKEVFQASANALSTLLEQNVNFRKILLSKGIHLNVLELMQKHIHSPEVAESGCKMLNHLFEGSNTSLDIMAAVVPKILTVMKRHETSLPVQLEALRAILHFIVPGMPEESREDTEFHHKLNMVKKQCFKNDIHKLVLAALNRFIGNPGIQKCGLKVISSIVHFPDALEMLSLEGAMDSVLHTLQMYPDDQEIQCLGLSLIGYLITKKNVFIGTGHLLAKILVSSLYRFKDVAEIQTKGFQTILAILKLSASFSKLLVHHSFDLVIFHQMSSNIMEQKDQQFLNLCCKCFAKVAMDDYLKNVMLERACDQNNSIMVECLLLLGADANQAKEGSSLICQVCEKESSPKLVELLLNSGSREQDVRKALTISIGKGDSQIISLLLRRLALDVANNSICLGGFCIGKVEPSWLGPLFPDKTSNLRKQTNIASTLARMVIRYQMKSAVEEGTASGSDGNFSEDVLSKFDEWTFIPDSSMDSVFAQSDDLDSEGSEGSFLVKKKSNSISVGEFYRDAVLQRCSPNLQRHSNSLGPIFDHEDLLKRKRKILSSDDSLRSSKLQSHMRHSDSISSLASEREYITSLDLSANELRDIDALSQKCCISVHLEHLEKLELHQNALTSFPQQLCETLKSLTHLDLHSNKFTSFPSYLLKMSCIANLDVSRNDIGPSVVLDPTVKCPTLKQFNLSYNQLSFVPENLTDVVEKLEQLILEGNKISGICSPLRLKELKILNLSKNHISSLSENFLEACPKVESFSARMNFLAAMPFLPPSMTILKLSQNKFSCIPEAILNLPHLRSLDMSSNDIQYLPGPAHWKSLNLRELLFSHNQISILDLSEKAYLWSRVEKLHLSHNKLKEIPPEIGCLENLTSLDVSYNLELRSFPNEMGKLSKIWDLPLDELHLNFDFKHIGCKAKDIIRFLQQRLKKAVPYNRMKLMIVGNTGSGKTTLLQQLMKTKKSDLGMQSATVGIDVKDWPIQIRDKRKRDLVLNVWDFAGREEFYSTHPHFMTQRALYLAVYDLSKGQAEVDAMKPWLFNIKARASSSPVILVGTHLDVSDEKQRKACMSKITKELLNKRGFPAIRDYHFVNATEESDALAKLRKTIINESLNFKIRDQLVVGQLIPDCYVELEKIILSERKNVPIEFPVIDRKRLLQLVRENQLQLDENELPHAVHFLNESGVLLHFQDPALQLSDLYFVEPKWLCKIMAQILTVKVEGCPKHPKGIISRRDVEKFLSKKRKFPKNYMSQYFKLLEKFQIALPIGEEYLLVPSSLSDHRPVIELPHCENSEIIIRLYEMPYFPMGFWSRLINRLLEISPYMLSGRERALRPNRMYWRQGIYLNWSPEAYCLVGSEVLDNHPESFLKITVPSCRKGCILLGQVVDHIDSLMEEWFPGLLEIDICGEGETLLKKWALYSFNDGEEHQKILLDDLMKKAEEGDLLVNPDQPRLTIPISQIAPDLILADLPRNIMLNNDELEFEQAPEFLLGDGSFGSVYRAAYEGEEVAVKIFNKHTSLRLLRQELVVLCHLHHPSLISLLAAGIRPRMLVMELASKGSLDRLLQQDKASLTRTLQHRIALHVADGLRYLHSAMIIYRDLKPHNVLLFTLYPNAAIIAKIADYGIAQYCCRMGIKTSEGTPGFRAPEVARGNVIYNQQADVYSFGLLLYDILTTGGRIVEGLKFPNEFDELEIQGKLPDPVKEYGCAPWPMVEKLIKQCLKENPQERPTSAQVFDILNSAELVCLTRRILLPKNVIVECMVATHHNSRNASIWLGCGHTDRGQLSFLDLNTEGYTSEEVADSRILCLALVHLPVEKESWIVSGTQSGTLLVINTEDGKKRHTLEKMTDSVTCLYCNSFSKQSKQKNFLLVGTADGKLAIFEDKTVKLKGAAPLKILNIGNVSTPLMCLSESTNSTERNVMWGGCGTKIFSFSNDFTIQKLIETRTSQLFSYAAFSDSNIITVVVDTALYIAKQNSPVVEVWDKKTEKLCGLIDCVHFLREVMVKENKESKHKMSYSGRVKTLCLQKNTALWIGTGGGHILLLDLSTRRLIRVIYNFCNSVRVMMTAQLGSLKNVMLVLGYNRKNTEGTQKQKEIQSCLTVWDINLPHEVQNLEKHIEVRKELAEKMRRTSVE
Put plainly: LRRK2 degradation HiBit assay, wildtype LRRK2 tagged with a HiBit tag in HEK293 cells. The format is cell-based. Particulars: 24 hours compound incubation; for Dmax: read-out: ** WT Dmax (%); for DC50: read-out: *WT DC50. An outline of the steps:
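HEK293 cells transiently co-transfected with ubiquitin-promoter-driven C-terminally HiBit-tagged wildtype LRRK2 plus firefly luciferase, then treated with compound for 24 h at 37° C. HiBit/luciferase ratio ×1000 normalized to DMSO median; DC50 and Dmax fitted per plate, six replicates across two days.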

T1 sequence (Q5S007 whole entry G2019S): as the sequence (Q5S007 whole entry) above, with G2019S counted along it

For `CC1=C(C(=O)Nc2ccc3[nH]nc(-c4ccnc(N5CCN(CCN6CCN(CC7CCN(c8ccc9c(c8)C(=O)N(C8CCC(=O)NC8=O)C9=O)CC7)CC6)CC5)c4)c3c2)[C@@H](C)n2nnnc2N1C` (stereo partly drawn) [compound 25, (7R)-N-{3-[2-(4-{2-[4-({1-[2-(2,6-dioxopiperidin-3-yl)-1,3-dioxo-2,3-dihydro-1H-isoindol-5-yl]piperidin-4-yl}methyl)piperazin-1-yl]ethyl}piperazin-1-yl)pyridin-4-yl]-1H-indazol-5-yl}-4,5,7-trimethyl-4H,7H-[1,2,3,4]tetrazolo[1,5-a]pyrimidine-6-carboxamide], in assay [1] (HEK293 cells), the “**G2019S Dmax (%)” value was “A (A ≥ 70)” and the DC50 fell in the range of 10 to 50 nM. In assay [2], the Dmax is not below 70% and the DC50 fell in the range of 50 to 100 nM.
Consider `CC1=C(C(=O)Nc2ccc3[nH]nc(-c4ccnc(N5CCN(CCOCCN6CC7(C6)CN(c6ccc8c(c6)C(=O)N(C6CCC(=O)NC6=O)C8=O)C7)CC5)c4)c3c2)[C@@H](C)n2nnnc2N1C` (stereo partly drawn) [compound 20, (7R)-N-[3-(2-{4-[2-(2-{6-[2-(2,6-dioxopiperidin-3-yl)-1,3-dioxo-2,3-dihydro-1H-isoindol-5-yl]-2,6-diazaspiro[3.3]heptan-2-yl}ethoxy)ethyl]piperazin-1-yl}pyridin-4-yl)-1H-indazol-5-yl]-4,5,7-trimethyl-4H,7H-[1,2,3,4]tetrazolo[1,5-a]pyrimidine-6-carboxamide], for which the DC50 in assay [1] (HEK293 cells) and in assay [2] was not below 100 nM throughout.
For the compound `CC1=C(C(=O)Nc2ccc3[nH]nc(-c4ccnc(N5CCN(CCN6CCN(CC7CCN(c8ccc9c(c8)C(=O)N(C8CCC(=O)NC8=O)C9=O)CC7)CC6)[C@@H](C)C5)c4)c3c2)C(C)(C)n2nnnc2N1C` (stereo partly drawn) [compound 30, N-(3-{2-[(3S)-4-{2-[4-({1-[2-(2,6-dioxopiperidin-3-yl)-1,3-dioxo-2,3-dihydro-1H-isoindol-5-yl]piperidin-4-yl}methyl)piperazin-1-yl]ethyl}-3-methylpiperazin-1-yl]pyridin-4-yl}-1H-indazol-5-yl)-4,5,7,7-tetramethyl-4H,7H-[1,2,3,4]tetrazolo[1,5-a]pyrimidine-6-carboxamide], the Dmax in assay [1] and in assay [2] was less than 50% in each case. The DC50 was 10 to 50 nM in assay [1] (HEK293 cells) and not below 100 nM in assay [2].
Regarding `CC1=C(C(=O)Nc2ccc3[nH]nc(-c4ccnc(N5CCN(CCN6CCC(CC7CCN(c8ccc9c(c8)C(=O)N(C8CCC(=O)NC8=O)C9=O)CC7)CC6)CC5)c4)c3c2)[C@@H](C)n2nnnc2N1C` (stereo partly drawn) [compound 23, (7R)-N-(3-(2-(4-(2-(4-((1-(2-(2,6-dioxopiperidin-3-yl)-1,3-dioxoisoindolin-5-yl)piperidin-4-yl)methyl)piperidin-1-yl)ethyl)piperazin-1-yl)pyridin-4-yl)-1H-indazol-5-yl)-4,5,7-trimethyl-4,7-dihydrotetrazolo[1,5-a]pyrimidine-6-carboxamide], the Dmax in assay [1] and in assay [2] was 50 to 70% throughout. Moreover, the DC50 in assay [1] (HEK293 cells) is 10 to 50 nM; in assay [2], 50 to 100 nM.
Turning to `CC1=C(C(=O)Nc2ccc3[nH]nc(-c4ccnc(N5CCN(CCN6CCC(CN7CCN(c8ccc9c(c8)C(=O)N(C8CCC(=O)NC8=O)C9=O)CC7)CC6)CC5)c4)c3c2)C(C)(C)n2nnnc2N1C` (stereo not drawn) [compound 33, N-{3-[2-(4-{2-[4-({4-[2-(2,6-dioxopiperidin-3-yl)-1,3-dioxo-2,3-dihydro-1H-isoindol-5-yl]piperazin-1-yl}methyl)piperidin-1-yl]ethyl}piperazin-1-yl)pyridin-4-yl]-1H-indazol-5-yl}-4,5,7,7-tetramethyl-4H,7H-[1,2,3,4]tetrazolo[1,5-a]pyrimidine-6-carboxamide], the Dmax in assay [1] and in assay [2] was less than 50% throughout. Moreover, the DC50 in assay [1] (HEK293 cells) and in assay [2] was not below 100 nM in each case.

The values above are taken from patent publication US12473294B2, “Selective modulators of mutant LRRK2 proteolysis and associated methods of use” (Arvinas Operations, Inc., priority 2020, dated 2025).
